Assay [1] addresses human α2β3γ2 GABAARs (benzodiazepine site) (Homo sapiens (Human), UniProt P18507+P47869). As to the kind of experiment: In vitro radioligand binding assay ([3H]Ro15-1788 displacement), α2-GABAAR Ki. As for the experimental part:
The affinity (Ki) of compounds for the benzodiazepine site of human recombinant GABAARs was measured by their ability to inhibit the binding of the selective benzodiazepine antagonist [^3H]Ro15-1788 ([^3H] flumazenil).
Mouse L(tk^−) cells stably expressing human α1β3γ2, α2β3γ2, α3β3γ2, α5β3γ2 GABAARs were generated by transfection of the individual subunits in the dexamethasone-inducible expression vector pMSGneo in mouse L(tk^−) cells (Hadingham et al., 1993, Mol. Pharmacol. 43:970-975 and 1993, Mol. Pharmacol. 44:1211-1218).
L(tk^−) cells stably expressing human α1β3γ2, α2β3γ2, α3β3γ2, α5β3γ2 GABAARs were maintained in DMEM F12 medium supplemented with 10% Foetal Bovine Serum, 1% Penicillin/Streptomycin and 1 mg/mL Geneticin G418 in an incubator at 37° C. with a humidified atmosphere with 5% CO2. Dexamethasone was added to the culture medium to induce GABAAR expression.
L(tk−) cells were harvested and membranes were prepared for each receptor combination in either TE buffer (10 mM Tris·CI/0.1 mM EDTA, pH 7.5) or phosphate buffer (K2PO4 10 mM, pH 7.0) (Hadingham et al. (1992) Proc. Natl. Acad. Sci. USA; 89 (14): 6378-82). Protein concentration, receptor expression and the Kd of [^3H]Ro15-1788 were determined before Ki value of the compounds were evaluated. For Kd evaluation, saturation binding curves were obtained by incubating membrane with various concentrations of [^3H]Ro15-1788 (82.5 Ci/mM), with nonspecific binding measured in the presence of 1-3 μM TP003.
For Ki evaluation, cell membranes were incubated with 4 nM [^3H]Ro15-1788 along with a range of concentrations of test compound. Nonspecific binding was determined using 1-3 μM TP003. All incubations were performed for 1 hour at 4° C. in assay buffer. The total assay volume was 0.5 mL, containing 40 μg/well α1β3γ2, 30 μg/well α2β3γ2, 40 μg/well α3β3γ2 and 30 μg/well for α5β3γ2 of membrane protein. Incubations were terminated by filtration and washing with ice cold Tris-HCl buffer (50 mM, pH=7.4) over Whatman GF/B filters and the radioactivity of the filters was measured using liquid scintillation counting.
The % inhibition of [^3H]Ro15-1788 binding was plotted as a function of compound concentration and the IC50 calculated. From the IC50, the affinity (Ki) was calculated using the method of Cheng and Prusoff using the Kd values obtained for [^3H]Ro15-1788.

Assay [2] concerns human α2β3γ2 GABAARs. Put plainly: In vitro electrophysiological recording assay (automated patch-clamp), α2-GABAAR relative efficacy. It counts as cell-based. To be noted: % efficacy normalised to diazepam; GABA EC10-20; concentration generally >= 100 times Ki. As for the experimental part:
The efficacy of modulators was evaluated using the automated patch-clamp platforms QPatch16 (Sophion, Copenhagen, Denmark) or SyncroPatch 384PE (Nanion, Germany).
For QPatch electrophysiology testing L(tk^−) cells stably expressing human α1β3γ2, α2β3γ2, α3β3γ2, α5β3γ2 GABAARs were used. HEK293 cells stably expressing human α1β3γ2L, α2β3γ2L, α3β3γ2L and α5β3γ2L GABAARs were used for the SyncroPatch 384PE experiments.
All experiments were carried out at room temperature (20-22° C.) using a standard whole cell procedure and physiological solutions. Gigaseals were formed upon execution of a combined suction/voltage protocol with subsequent increased suction leading to the whole-cell configuration.
The currents recorded were acquired at either 1 KHz or 2 KHz and filtered using a Bessel filter. Whole-cell currents were measured at a holding potential of-65 mV (QPatch) or −80 mV (SyncroPatch).
For QPatch experiments, the extracellular solution contained of: 145 mM NaCl, 4 mM KCl, 1 mM MgCl2, 2 mM CaCl2), 10 mM HEPES, 10 mM D-glucose (pH 7.4), and the intracellular solution consisted of: 96 mM KCl, 28 mM CsCl, 25 mM KOH, 4.3 mM CaCl2), 1.4 mM MgCl2, 10 mM EGTA, 10 mM HEPES, 3 mM MgATP (pH 7.2). The osmolarities of the extracellular and intracellular solutions were 305 and 295 mOsm respectively.
For SyncroPatch experiments, the extracellular recording solution contained: 140 mM NaCl, 4 mM KCl, 2 mM CaCl2), 1 mM MgCl2, 10 mM HEPES, 5 mM glucose (pH 7.4 with NaOH and osmolarity of c. 300-310 mOsm). The intracellular recording solution consisted of: 90 mM KCl, 50 mM KF, 1.5 mM MgCl2, 11.1 mM EGTA and 10 mM HEPES (pH 7.2 with KOH and osmolarity of c. 300 mOsm). 2 mM of NaATP was added to the intracellular solution on the day of testing.
The effects of modulators were evaluated in the presence of a submaximal GABA concentration, giving typically less than 30% activation of the response elicited by a saturating GABA concentration. To check and ensure baseline current stability before compound addition, two to five consecutive applications of GABA EC10-20 separated by wash steps were performed before compound addition. The test compound was applied 1 min at least prior to co-application with GABA EC10-20. Following a further wash step, a saturating concentration of GABA was applied at the end of each recording, allowing the accurate evaluation for each cell of the percentage baseline activation elicited by the submaximal GABA applied.
The compounds were first dissolved in DMSO as a 10 mM stock and then further diluted to the testing concentrations so that the final DMSO concentration in the extracellular recording solution was 0.1% (QPatch) or 0.2% (SyncroPatch).
The % efficacy of modulators was determined from the GABA elicited currents recorded in the presence and absence of the test compound, using the formula:
[((compound peak current−leak)−(GABA peak current-leak))/(GABA peak current−leak)]*100,
where ‘leak’ is the leak baseline current at the holding potential, ‘compound peak current’ is the current elicited by co-application of compound and GABA, and ‘GABA peak current’ is the current elicited by GABA alone at the last GABA application before compound addition. The results were presented as ‘relative efficacy’ for each compound generally at a concentration equal or higher than 100 times their determined Ki. The relative efficacy of a compound was calculated by normalising its % efficacy to the corresponding % efficacy of diazepam that was separately determined.

Where [3] appears, read: L(tk-) cell membranes, 4 nM [3H]Ro15-1788, read-out: α2-GABAAR Ki.

Each structure is given as a SMILES string. Read-outs that look alike come from different tables or passages of the source.

human α2β3γ2 GABAARs (benzodiazepine site), sequence (P47869 29-451): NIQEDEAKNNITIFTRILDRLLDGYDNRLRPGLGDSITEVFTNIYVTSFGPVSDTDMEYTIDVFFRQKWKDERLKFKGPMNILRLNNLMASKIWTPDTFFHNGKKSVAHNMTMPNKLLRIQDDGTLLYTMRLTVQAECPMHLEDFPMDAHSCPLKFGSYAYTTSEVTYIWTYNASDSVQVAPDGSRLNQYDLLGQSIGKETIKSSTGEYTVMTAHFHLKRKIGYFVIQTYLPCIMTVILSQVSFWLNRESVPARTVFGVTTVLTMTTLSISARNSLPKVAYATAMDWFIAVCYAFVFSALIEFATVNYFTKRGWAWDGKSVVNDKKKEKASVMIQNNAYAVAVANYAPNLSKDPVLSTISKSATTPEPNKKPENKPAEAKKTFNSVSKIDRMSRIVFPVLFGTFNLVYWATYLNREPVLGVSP
human α2β3γ2 GABAARs (benzodiazepine site), sequence (P28472 26-473 partner): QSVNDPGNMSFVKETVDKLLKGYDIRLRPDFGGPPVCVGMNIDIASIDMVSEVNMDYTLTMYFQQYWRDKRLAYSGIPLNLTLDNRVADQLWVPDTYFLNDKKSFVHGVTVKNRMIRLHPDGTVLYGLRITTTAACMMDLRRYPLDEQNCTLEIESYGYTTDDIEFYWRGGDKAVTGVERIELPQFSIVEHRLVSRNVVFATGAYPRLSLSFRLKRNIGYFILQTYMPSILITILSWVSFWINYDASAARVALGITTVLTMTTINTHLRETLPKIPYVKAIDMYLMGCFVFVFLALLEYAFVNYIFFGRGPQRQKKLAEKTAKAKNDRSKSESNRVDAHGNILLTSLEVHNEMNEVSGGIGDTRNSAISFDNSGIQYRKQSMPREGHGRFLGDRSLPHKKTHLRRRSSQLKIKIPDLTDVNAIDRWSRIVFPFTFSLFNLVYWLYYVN
human α2β3γ2 GABAARs (benzodiazepine site), sequence (P18507 40-475): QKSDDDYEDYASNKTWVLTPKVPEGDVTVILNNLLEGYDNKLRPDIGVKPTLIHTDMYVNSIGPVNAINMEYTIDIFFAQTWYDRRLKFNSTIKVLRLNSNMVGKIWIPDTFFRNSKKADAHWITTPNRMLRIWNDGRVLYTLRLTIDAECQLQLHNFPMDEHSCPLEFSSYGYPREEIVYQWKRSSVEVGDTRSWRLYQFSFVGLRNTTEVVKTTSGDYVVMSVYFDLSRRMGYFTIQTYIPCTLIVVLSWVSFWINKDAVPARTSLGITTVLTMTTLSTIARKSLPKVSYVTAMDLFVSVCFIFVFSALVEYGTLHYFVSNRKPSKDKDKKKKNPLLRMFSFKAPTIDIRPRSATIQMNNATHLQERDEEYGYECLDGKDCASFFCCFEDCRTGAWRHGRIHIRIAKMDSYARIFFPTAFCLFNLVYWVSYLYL

`CCCNC(=O)c1c(N)c2cccc(-c3cccc(OC(F)(F)F)n3)c2[nH]c1=O` [Example 1, 4-Amino-2-oxo-N-propyl-8-[6-(trifluoromethoxy)-2-pyridyl]-1H-quinoline-3-carboxamide]: in assay [1], the Ki is 0.00079 µM. Further, the “α2-GABAAR Relative Efficacy (vs. Diazepam)” value (“α2-GABAAR Relative Efficacy” below) in assay [2] amounted to 0.13. The like results for `CCCNC(=O)c1c(N)c2cccc(-c3cccc(C(F)F)n3)c2[nH]c1=O` [Example 3, 4-Amino-8-[6-(difluoromethyl)-2-pyridyl]-2-oxo-N-propyl-1H-quinoline-3-carboxamide] were, in that order, 0.00199 µM and 0.29. The like results for `CCCNC(=O)c1c(N)c2cccc(-c3ncc(F)cc3F)c2[nH]c1=O` [Example 6, 4-Amino-8-(3,5-difluoro-2-pyridyl)-2-oxo-N-propyl-1H-quinoline-3-carboxamide] were, in that order, 0.00087 µM and 0.10.

As for `CCCNC(=O)c1c(N)c2cccc(-c3nc(OCC)ccc3F)c2[nH]c1=O` [Example 9, 4-Amino-8-(6-ethoxy-3-fluoropyridin-2-yl)-2-oxo-N-propyl-1,2-dihydroquinoline-3-carboxamide], in assay [1], the Ki amounted to 0.00025 µM. In addition, in assay [2], the “α2-GABAAR Relative Efficacy” value worked out at 0.23. The like results for `CCCNC(=O)c1c(N)c2cccc(-c3nc(COC)ccc3F)c2[nH]c1=O` [Example 10, 4-Amino-8-(3-fluoro-6-(methoxymethyl)pyridin-2-yl)-2-oxo-N-propyl-1,2-dihydroquinoline-3-carboxamide] were, in that order, 0.0015 µM and 0.22. As to `CCCNC(=O)c1c(N)c2cccc(-c3nc(CO)ccc3C)c2[nH]c1=O` [Example 12, 4-Amino-8-(6-(hydroxymethyl)-3-methylpyridin-2-yl)-2-oxo-N-propyl-1,2-dihydroquinoline-3-carboxamide], the Ki in assay [1] is 0.00817 µM. The “α2-GABAAR Relative Efficacy” value in assay [2] was determined as 0.38.

On to `CCCNC(=O)c1c(N)c2cccc(-c3cnccc3C)c2[nH]c1=O` [Example 15, 4-Amino-8-(4-methylpyridin-3-yl)-2-oxo-N-propyl-1,2-dihydroquinoline-3-carboxamide], for which the Ki in assay [1] came to 0.00409 µM. In addition, the “α2-GABAAR Relative Efficacy” value in assay [2] is recorded as 0.17. As for `CNC(=O)c1c(N)c2cccc(-c3cnccc3OC)c2[nH]c1=O` [Example 55, 4-Amino-8-(4-methoxy-3-pyridyl)-N-methyl-2-oxo-1H-quinoline-3-carboxamide], the Ki in assay [1] (setting [3]) was found to be 0.159 µM. For the molecule `COc1ccncc1-c1cccc2c(N)c(C(=O)NC3CC3)c(=O)[nH]c12` [Example 57, 4-Amino-N-cyclopropyl-8-(4-methoxy-3-pyridyl)-2-oxo-1H-quinoline-3-carboxamide], the Ki in assay [1] came to 0.0733 µM. On to `COc1ccncc1-c1cccc2c(N)c(C(=O)NC3COC3)c(=O)[nH]c12` [Example 58, 4-Amino-8-(4-methoxy-3-pyridyl)-N-(oxetan-3-yl)-2-oxo-1H-quinoline-3-carboxamide], for which the Ki in assay [1] (setting [3]) worked out at 0.154 µM.

Regarding `COc1ccncc1-c1cccc2c(N)c(C(=O)NCC(F)F)c(=O)[nH]c12` [Example 61, 4-Amino-N-(2,2-difluoroethyl)-8-(4-methoxy-3-pyridyl)-2-oxo-1H-quinoline-3-carboxamide], the Ki in assay [1] (setting [3]) came to 0.107 µM. Take `COc1ccncc1-c1cccc2c(N)c(C(=O)NCC(C)(F)F)c(=O)[nH]c12` [Example 65, 4-Amino-N-(2,2-difluoropropyl)-8-(4-methoxy-3-pyridyl)-2-oxo-1H-quinoline-3-carboxamide]: the Ki in assay [1] worked out at 0.0552 µM. `COc1ccncc1-c1cccc2c(N)c(C(=O)NCCCO)c(=O)[nH]c12` [Example 66, 4-Amino-N-(3-hydroxypropyl)-8-(4-methoxy-3-pyridyl)-2-oxo-1H-quinoline-3-carboxamide]: the Ki in assay [1] was 0.0186 µM. On to `Nc1c(C(=O)NC2CC2)c(=O)[nH]c2c(-c3cnccc3OC(F)F)cccc12` [Example 70, 4-Amino-N-cyclopropyl-8-[4-(difluoromethoxy)-3-pyridyl]-2-oxo-1H-quinoline-3-carboxamide], for which the Ki in assay [1] (setting [3]) was over 0.5 µM. On the same count and under the same terms, with `COCCNC(=O)c1c(N)c2cccc(-c3cnccc3OC(F)F)c2[nH]c1=O` [Example 71, 4-Amino-8-[4-(difluoromethoxy)-3-pyridyl]-N-(2-methoxyethyl)-2-oxo-1H-quinoline-3-carboxamide] the figure was over 0.5 µM; with `Cc1nn(C)cc1-c1cccc2c(N)c(C(=O)NCC3COC3)c(=O)[nH]c12` [Example 72, 4-Amino-8-(1,3-dimethyl-1H-pyrazol-4-yl)-N-(oxetan-3-ylmethyl)-2-oxo-1,2-dihydroquinoline-3-carboxamide], over 0.5 µM; with `Cc1nn(C)cc1-c1cccc2c(N)c(C(=O)NCCC#N)c(=O)[nH]c12` [Example 74, 4-Amino-N-(2-cyanoethyl)-8-(1,3-dimethylpyrazol-4-yl)-2-oxo-1H-quinoline-3-carboxamide], over 0.5 µM. On the same count and under the same terms, under `Cc1nn(C)cc1-c1cccc2c(N)c(C(=O)NCCCN(C)C)c(=O)[nH]c12` [Example 75, 4-Amino-N-[3-(dimethylamino)propyl]-8-(1,3-dimethylpyrazol-4-yl)-2-oxo-1H-quinoline-3-carboxamide] stands 0.171 µM. Turning to `CCCNC(=O)c1c(N)c2cccc(-c3cnccc3OC)c2n(C)c1=O` [Example 77, 4-Amino-8-(4-methoxy-3-pyridyl)-1-methyl-2-oxo-N-propyl-quinoline-3-carboxamide], the inhibition constant (Ki) in assay [1] amounted to 0.00277 µM. On the same count and under the same terms, under `CCCNC(=O)c1c(N)c2ccnc(-c3cnccc3OC)c2[nH]c1=O` [Example 84, 4-Amino-8-(4-methoxypyridin-3-yl)-2-oxo-N-propyl-1,2-dihydro-1,7-naphthyridine-3-carboxamide] stands 0.0755 µM.
